The first test addresses T1, human APJ receptor (Homo sapiens, UniProt P35414).
T1 construct: expressed in transfected cells; host or cells: HEK293
T1 sequence (P35414 1-380): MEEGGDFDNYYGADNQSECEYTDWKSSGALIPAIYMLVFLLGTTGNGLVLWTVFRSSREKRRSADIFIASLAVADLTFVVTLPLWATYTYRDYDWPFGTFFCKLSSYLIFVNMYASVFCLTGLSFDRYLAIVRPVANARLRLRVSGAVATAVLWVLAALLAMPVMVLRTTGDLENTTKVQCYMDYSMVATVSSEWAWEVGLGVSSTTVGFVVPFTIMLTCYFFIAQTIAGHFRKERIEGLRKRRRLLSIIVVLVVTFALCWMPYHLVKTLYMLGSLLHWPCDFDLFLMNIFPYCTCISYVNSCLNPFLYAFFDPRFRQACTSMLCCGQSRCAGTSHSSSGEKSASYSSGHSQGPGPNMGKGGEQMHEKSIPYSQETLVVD
Put plainly: Intracellular cAMP Accumulation Assay (APJ hcAMP, HTRF). The test is classed as cell-based.
Details: not given
In short, it runs like this: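 Stably transfected HEK293 cells (5,000/well) incubated 30 min at room temperature with serially diluted compound, […] and 2 μM forskolin. cAMP measured by HTRF after 60 min with detection reagents, quantified against a cAMP standard curve; EC50 from variable-slope sigmoidal fit of inhibition of forskolin-stimulated cAMP.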
In general, EC50 refers to the concentration giving half of the maximal effect. `CCCCc1nc(=O)c(C(=O)N2CCC(c3ccc(Cl)cn3)C2)c(O)n1-c1c(OC)cccc1OC` (stereo not drawn) [Example 1, 2-Butyl-5-(3-(5-chloropyridin-2-yl)pyrrolidine-1-carbonyl)-1-(2,6-dimethoxyphenyl)-6-hydroxypyrimidin-4(1H)-one] gave an EC50 of 0.01 to 10 nM.

The same test, now with this note: HEK293 cells stably expressing human APJ receptor; inhibition of forskolin-mediated cAMP production; read-out: Human APJ cAMP EC50 potency range.
`CCCCc1nc(=O)c(C(=O)N2CC[C@H](c3ccccc3)C2)c(O)n1-c1c(C2CC2)cccc1C1CC1` [Example 2, (R)-2-Butyl-1-(2,6-dicyclopropylphenyl)-6-hydroxy-5-(3-phenylpyrrolidine-1-carbonyl)pyrimidin-4(1H)-one]: the EC50 fell in the range of 0.01 to 10 nM.
For the molecule `CCOCc1nc(=O)c(C(=O)N2CCC(c3ccccn3)C2)c(O)n1-c1c(OC)cccc1OC` (stereo not drawn) [Example 3, 1-(2,6-Dimethoxyphenyl)-2-(ethoxymethyl)-6-hydroxy-5-(3-(pyridin-2-yl)pyrrolidine-1-carbonyl)pyrimidin-4(1H)-one], the 50% effective concentration (EC50) was 0.01 to 10 nM.

The test is the same for the next values; noted with them: human APJ, cAMP accumulation; potency range class; read-out: hAPJ cAMP EC50 Potency range.
On to `CC[C@@H](c1ccccc1)n1c(-c2nc(C)cs2)nc(=O)c(C(=O)N2CCC(c3ccccc3F)C2)c1O` (single isomer, unassigned) [Example 324], for which the EC50 was 0.01 to 10 nM.
Still for that read-out and setting: in the case of `CCc1cccc(CC)c1-n1c(-c2ccn(C3CC3)n2)nc(=O)c(C(=O)N2CCC(c3ncc(F)cc3F)C2)c1O` (single isomer, unassigned) [Example 325, 2-(1-cyclopropyl-1H-pyrazol-3-yl)-1-(2,6-diethylphenyl)-5-[3-(3,5-difluoropyridin-2-yl)pyrrolidine-1-carbonyl]-6-hydroxy-1,4-dihydropyrimidin-4-one] it was 0.01 to 10 nM; in that of `CCn1ccc(-c2nc(=O)c(C(=O)N3CCC(c4ncc(Cl)cc4F)C3)c(O)n2[C@H](c2cc(F)cc(F)c2)C(C)C)n1` (single isomer, unassigned) [Example 326], 0.01 to 10 nM.
Take `CCn1ccc(-c2nc(=O)c(C(=O)N3CCC(c4ncc(F)cc4F)C3)c(O)n2[C@H](c2cc(F)cc(F)c2)C(C)C)n1` (single isomer, unassigned) [Example 327]: the EC50 lay in the range of 0.01 to 10 nM.
Consider `CCc1cccc(CC)c1-n1c(-c2ccn(C3CC3)n2)nc(=O)c(C(=O)N2CCC(c3ccc(F)cn3)C2)c1O` (single isomer, unassigned) [Example 328, 2-(1-cyclopropyl-1H-pyrazol-3-yl)-1-(2,6-diethylphenyl)-5-[3-(5-fluoropyridin-2-yl)pyrrolidine-1-carbonyl]-6-hydroxy-1,4-dihydropyrimidin-4-one], for which the EC50 was 0.01 to 10 nM.
With `CCCCc1nc(O)c(C(=O)N2CCC(c3ncc(F)cc3F)C2)c(=O)n1[C@@H](CC)c1ccccc1` (single isomer, unassigned) [Example 345], the EC50 fell in the range of 0.01 to 10 nM.
Regarding `CCCCc1nc(O)c(C(=O)N2CCC(c3ncc(Cl)cc3F)C2)c(=O)n1[C@@H](COC)c1ccccc1` (single isomer, unassigned) [Example 352], the half-maximal effective concentration (EC50) lay in the range of 0.01 to 10 nM.
On to `CCOCc1nc(=O)c(C(=O)N2CCC(c3c(F)cccc3F)C2)c(O)n1-c1c(OC)cccc1OC` (single isomer, unassigned) [Example 353, 5-[3-(2,6-difluorophenyl)pyrrolidine-1-carbonyl]-1-(2,6-dimethoxyphenyl)-2-(ethoxymethyl)-6-hydroxy-1,4-dihydropyrimidin-4-one], for which the EC50 was 0.01 to 10 nM.
As for `CCOCc1nc(=O)c(C(=O)N2CCC(c3c(F)cccc3F)C2)c(O)n1-c1c(OC)cccc1OC` (single isomer, unassigned) [Example 354, 5-[3-(2,6-difluorophenyl)pyrrolidine-1-carbonyl]-1-(2,6-dimethoxyphenyl)-2-(ethoxymethyl)-6-hydroxy-1,4-dihydropyrimidin-4-one], the EC50 was 0.01 to 10 nM.
In the case of `CCCCc1nc(=O)c(C(=O)N2CCC(c3ncc(Cl)cc3F)C2)c(O)n1-c1c(OC)cccc1OC` (single isomer, unassigned) [Example 356, 2-butyl-5-(3-(5-chloro-3-fluoropyridin-2-yl)pyrrolidine-1-carbonyl)-1-(2,6-dimethoxyphenyl)-6-hydroxypyrimidin-4(1H)-one], the EC50 fell in the range of 0.01 to 10 nM.
Regarding `CCCCc1nc(=O)c(C(=O)N2CCC(c3ncc(Cl)cc3F)C2)c(O)n1-c1c(OC)cccc1OC` (single isomer, unassigned) [Example 357, 2-butyl-5-(3-(5-chloro-3-fluoropyridin-2-yl)pyrrolidine-1-carbonyl)-1-(2,6-dimethoxyphenyl)-6-hydroxypyrimidin-4(1H)-one], the EC50 lay within 0.01 to 10 nM.
For `CCCCc1nc(=O)c(C(=O)N2CCC(c3ncc(F)cc3F)C2)c(O)n1-c1c(OC)cccc1OC` (single isomer, unassigned) [Example 358, 2-butyl-5-(3-(3,5-difluoropyridin-2-yl)pyrrolidine-1-carbonyl)-1-(2,6-dimethoxyphenyl)-6-hydroxypyrimidin-4(1H)-one], the half-maximal effective concentration (EC50) fell in the range of 0.01 to 10 nM.
For the molecule `CCCCc1nc(=O)c(C(=O)N2CCC(c3ncc(F)cc3F)C2)c(O)n1-c1c(OC)cccc1OC` (single isomer, unassigned) [Example 359, 2-butyl-5-(3-(3,5-difluoropyridin-2-yl)pyrrolidine-1-carbonyl)-1-(2,6-dimethoxyphenyl)-6-hydroxypyrimidin-4(1H)-one], the EC50 is 0.01 to 10 nM.
For the molecule `CCOCc1nc(=O)c(C(=O)N2CCC(c3ccccc3C#N)C2)c(O)n1-c1c(OC)cccc1OC` (single isomer, unassigned) [Example 362, 2-(1-(1-(2,6-dimethoxyphenyl)-2-(ethoxymethyl)-6-hydroxy-4-oxo-1,4-dihydropyrimidine-5-carbonyl)pyrrolidin-3-yl)benzonitrile], the EC50 lay in the range of 0.01 to 10 nM.
Consider `CCOCc1nc(=O)c(C(=O)N2CCC(c3ccccc3C#N)C2)c(O)n1-c1c(OC)cccc1OC` (single isomer, unassigned) [Example 363, 2-(1-(1-(2,6-dimethoxyphenyl)-2-(ethoxymethyl)-6-hydroxy-4-oxo-1,4-dihydropyrimidine-5-carbonyl)pyrrolidin-3-yl)benzonitrile], for which the EC50 lay in the range of 0.01 to 10 nM.
`CCCCc1nc(=O)c(C(=O)N2CCC(c3ccccc3C#N)C2)c(O)n1-c1c(OC)cccc1OC` (single isomer, unassigned) [Example 364, 2-(1-(2-butyl-1-(2,6-dimethoxyphenyl)-6-hydroxy-4-oxo-1,4-dihydropyrimidine-5-carbonyl)pyrrolidin-3-yl)benzonitrile]: the EC50 lay in the range of 0.01 to 10 nM.
As to `CCCCc1nc(=O)c(C(=O)N2CCC(c3ccccc3C#N)C2)c(O)n1-c1c(OC)cccc1OC` (single isomer, unassigned) [Example 365, 2-(1-(2-butyl-1-(2,6-dimethoxyphenyl)-6-hydroxy-4-oxo-1,4-dihydropyrimidine-5-carbonyl)pyrrolidin-3-yl)benzonitrile], the EC50 was 0.01 to 10 nM.
The same measure, in the same setting: in the case of `CCCCc1nc(=O)c(C(=O)N2CCC(c3ncccc3F)C2)c(O)n1-c1c(OC)cccc1OC` (single isomer, unassigned) [Example 366, 2-butyl-1-(2,6-dimethoxyphenyl)-5-(3-(3-fluoropyridin-2-yl)pyrrolidine-1-carbonyl)-6-hydroxypyrimidin-4(1H)-one] it was 0.01 to 10 nM.

Staying with this test, now noted: read-out: hAPJ cAMP EC50 Potency range.
In the case of `CCCCc1nc(=O)c(C(=O)N2CCC(c3ncccc3F)C2)c(O)n1-c1c(OC)cccc1OC` (single isomer, unassigned) [Example 367, 2-butyl-1-(2,6-dimethoxyphenyl)-5-(3-(3-fluoropyridin-2-yl)pyrrolidine-1-carbonyl)-6-hydroxypyrimidin-4(1H)-one], the EC50 was 0.01 to 10 nM.
Regarding `COc1cccc(OC)c1-n1c(COC(C)(C)C)nc(=O)c(C(=O)N2CCC(c3ccccc3C#N)C2)c1O` (single isomer, unassigned) [Example 368, 2-(1-(2-(tert-butoxymethyl)-1-(2,6-dimethoxyphenyl)-6-hydroxy-4-oxo-1,4-dihydropyrimidine-5-carbonyl)pyrrolidin-3-yl)benzonitrile], the EC50 lay in the range of 0.01 to 10 nM.
Same read-out and setting: as for `COc1cccc(OC)c1-n1c(COC(C)(C)C)nc(=O)c(C(=O)N2CCC(c3ccccc3C#N)C2)c1O` (single isomer, unassigned) [Example 369, 2-(1-(2-(tert-butoxymethyl)-1-(2,6-dimethoxyphenyl)-6-hydroxy-4-oxo-1,4-dihydropyrimidine-5-carbonyl)pyrrolidin-3-yl)benzonitrile], the figure is 0.01 to 10 nM; as for `CCCCc1nc(=O)c(C(=O)N2CCC(c3ccc(F)cn3)C2)c(O)n1-c1c(OC)cccc1OC` (single isomer, unassigned) [Example 370, 2-butyl-1-(2,6-dimethoxyphenyl)-5-(3-(5-fluoropyridin-2-yl)pyrrolidine-1-carbonyl)-6-hydroxypyrimidin-4(1H)-one], 0.01 to 10 nM.
Consider `CCCCc1nc(=O)c(C(=O)N2CCC(c3ccc(F)cn3)C2)c(O)n1-c1c(OC)cccc1OC` (single isomer, unassigned) [Example 371, 2-butyl-1-(2,6-dimethoxyphenyl)-5-(3-(5-fluoropyridin-2-yl)pyrrolidine-1-carbonyl)-6-hydroxypyrimidin-4(1H)-one], for which the EC50 was 0.01 to 10 nM.
For `CCOCc1nc(=O)c(C(=O)N2CCC(c3ncc(F)cc3F)C2)c(O)n1-c1c(OC)cccc1OC` (single isomer, unassigned) [Example 372, 5-(3-(3,5-difluoropyridin-2-yl)pyrrolidine-1-carbonyl)-1-(2,6-dimethoxyphenyl)-2-(ethoxymethyl)-6-hydroxypyrimidin-4(1H)-one], the EC50 was 0.01 to 10 nM.

The record behind these values is US10590113B2, “6-hydroxy-4-oxo-1,4-dihydropyrimidine-5-carboxamides as APJ agonists” (priority 2016, dated 2020).
